For 1 compound, IC50 results are on record in article PMC4719581, “Tankyrase inhibition impairs directional migration and invasion of lung cancer cells by affecting microtubule dynamics and polarity signals” (BMC Biology, 2016).

The target in the test is T1, TNKS2 (tankyrase 2) (Homo sapiens, UniProt Q9H2K2).
T1 construct: recombinant His-tagged human TNKS2 poly(adenosine diphosphate)-ribose polymerase (PARP) domain, baculovirus-expressed
T1 sequence (Q9H2K2 946-1162 limits assumed): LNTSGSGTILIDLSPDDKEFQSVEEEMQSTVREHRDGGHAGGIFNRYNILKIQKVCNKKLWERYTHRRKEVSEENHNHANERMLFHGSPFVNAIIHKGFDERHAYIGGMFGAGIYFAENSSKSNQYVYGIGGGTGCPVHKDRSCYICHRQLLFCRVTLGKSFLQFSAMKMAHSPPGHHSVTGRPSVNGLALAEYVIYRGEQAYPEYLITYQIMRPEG
Kind of test: auto-PARsylation assay with purified PARP domain on Ni2+-coated Flashplate, radioactive scintillation readout. It is filed as biochemical.

Regarding `CCc1cc2ccc(C(C)(C#N)Cc3cccc(C#N)c3)cc2[nH]c1=O` (single isomer, unassigned) [JNJ-BJ, (R or S)-3-[2-cyano-2-(3-ethyl-2-oxo-1H-quinolin-7-yl)propyl]benzonitrile], the IC50 came out at 130 nM.
